Test results reported in patent publication US12616713B2, “Methods for enhancing vascular density” (priority 2016, dated 2026).

How the values were obtained:
[1] = tested on: human aortic endothelial cells (HAECs); assay: Tube formation assay, HAECs; type: cell-based
Procedure: Formation of tube networks was assessed as described before (Borradaile and Pickering, 2009, Aging Cell 8, 100-112). ECs were seeded at 10,000 cells per well in a 24-well plate (Corning) coated with 150 μL Cultrex reduced growth factor basement membrane extract (Trevigen). The cells were supplemented with C2C12 CM or EBM-2 medium containing VEGF (30 ng/mL) or FGF (30 ng/mL). […] Following an 18 h-incubation, resulting tube networks were analyzed by light microscopy (Nikon Eclipse TiE). For tube formation assays with H2O2 treatment, cells were incubated with 150 μM H2O2 for 1 h before seeding and imaged after 10 h-incubation. The number of branch points and total length of tubule networks were quantified by ImageJ software.

[2] = tested on: MLECs isolated from WT and ESKO mice; assay: Transwell migration assay, MLECs; type: cell-based, mouse; settings: WT versus ESKO MLECs, C2C12 CM, NMN 0.5 mM
HAECs = assay: Spheroid sprouting assay, HAECs; type: cell-based, human
Procedure: ECs spheroids were generated as described previously (Korff and Augustin, 1998, J Cell Biol 143, 1341-1352). ECs (1000 cells per spheroid) were suspended in EGM-2 medium containing 20% methocel (viscosity: 4000 cps, Sigma) and seeded in non-adherent round-bottom 96-well plates (Sigma). Under these conditions all suspended cells contributed to the formation of a single spheroid. The spheroids were harvested after 24 h embedded into collagen gels. Sprouting was initiated by adding C2C12 CM or EBM-2 medium containing VEGF (50 ng/mL). NMN (0.5 mM), NaHS (0.1 mM), DAPT (20 μM, Cayman Chemical) or SU5416 (10 μM, Sigma) were added to the media wherever mentioned. Angiogenic activity was quantified by measuring the sprout length that had grown out of each spheroid analyzing 8-10 spheroids per group.

C57BL/6J mice [3] = assay: Contrast-enhanced ultrasound of hindlimb muscle perfusion; type: in vivo, mouse; settings: 20-month old mice, NMN-treated versus vehicle
Procedure: Mice were anesthetized with isoflurane (1.5-2%, 500 ml 02/min), hindlimbs were shaved using depilatory cream and a 27-gauge catheter was placed into each mouse's tail and kept in place with surgical tape. Each mouse was placed in a supine position on a platform heated to 38° C. with each paw taped to a surface electrode to monitor ECG, heart rate, and respiratory rate. Contrast-enhanced ultrasound (CEU) (Vevo 2100, Visualsonics, Canada) was performed at an imaging frequency of 18 MHz. The probe was placed on the medial side of the leg to image the lower hindlimb in a sagittal plane. A bolus injection of microbubbles (Vevo MicroMarker, Canada) were injected through the tail vein catheter according to the manufacturer's instructions. A cine loop was recorded at a frame rate of 20 frames/s for a total of 1,000 frames. Curve fit analysis was used to measure echo power over time. The difference in maximum and minimum video intensity was determined as the peak enhancement and was the variable used to determine muscle perfusion.

C57BL/6J mice [4] = assay: Metabolic chambers (CLAMS) oxygen consumption; type: in vivo, mouse
Procedure: Metabolic chambers (CLAMS™, Columbus Instruments, Columbus, OH) were used to perform whole-body measurements of metabolic function. Following acclimatization to the metabolic chambers, individually housed mice were monitored continuously over 48 h to determine oxygen consumption, carbon dioxide production, respiratory exchange ratio, energy expenditure, food intake, water intake and activity. Body composition (fat mass, lean mass, and total body water) was measured by EchoMRI (Echo MRI™ 900).

SIRT1-iKO and WT mice = assay: Hindlimb ischemia model; type: in vivo, mouse; settings: 8-month old mice, femoral ligation, NMN 20 days; SIRT1-dependent
Procedure: The effect of NMN in ischemia-induced vessel formation was assessed in a murine model of hindlimb ischemia using SIRT1-iKO and WT mice according to the published protocol (Limbourg et al., 2009, Nat Protoc 4, 1737-1746). Treatment of animals with NMN (500 mg/kg/day) via drinking water started one week prior to femoral ligation and was continued until the end of the experiment. The blood flow in the ischemic limb was measured using contrast-enhanced ultrasound imaging, 20 days after the surgery.
Mice were anesthetized with isoflurane (1.5-2%, 500 ml 02/min), hindlimbs were shaved using depilatory cream and a 27-gauge catheter was placed into each mouse's tail and kept in place with surgical tape. […] A cine loop was recorded at a frame rate of 20 frames/s for a total of 1,000 frames. […] The difference in maximum and minimum video intensity was determined as the peak enhancement and was the variable used to determine muscle perfusion.
Freshly isolated whole quadriceps and gastrocnemius muscle samples were mounted in OCT compound (Tissue-Tek), placed in an isopentane bath and slowly cooled in liquid nitrogen. […] Images were acquired using a confocal fluorescence microscope (Nikon A1). Quantification of capillaries and capillary density were performed using ImageJ software. […]

HUVECs = assay: Wound scratch assay, HUVECs; type: cell-based, human; settings: Scr or SIRT1 siRNA HUVECs, H2O2 150 μM 1 h, NaHS 100 μM and/or NMN 500 μM, 6 h
Procedure: ECs were cultured until forming a confluent monolayer and a scratch was made using a 200 μL pipette tip. Then the cells were allowed to migrate+/−NaHS (0.1 mM) and +/−NMN (0.5 mM) in EGM-2 medium for 6 hrs. Images were taken at the same location using a brightfield inverted microscope (Olympus 2467) every 2 h. The area of gap closure was calculated using ImageJ software. In some experiments, HUVECs were transduced with Scr or SIRT1 siRNA and cultured until forming a confluent monolayer. The cells were exposed to H2O2 (150 μM) for 1 h and a scratch was made using a 200 μL pipette tip. Then the cells were allowed to migrate with PBS (vehicle), NaHS (100 μM) and/or NMN (500 μM) in EGM-2 medium for 6 h. Images were taken at the same location using a brightfield inverted microscope (Olympus 2467) every 2 h. The area of gap closure was calculated using ImageJ software.

[5] = NMN and VEGF (30 ng/mL) cotreatment of HAECs, compared to VEGF alone

NC(=O)c1ccc[n+]([C@@H]2O[C@H](COP(=O)([O-])O)[C@@H](O)[C@H]2O)c1 [NMN, nicotinamide mononucleotide]
number of branch points and total length of tubes ([1]; NMN 10 μM, 100 μM or 500 μM versus PBS): steadily increased | increase in number of branch points [1, 5]: 32% | increase in tubule length [1, 5]: 15% | increase in number of branch points ([1]; NMN itself, without VEGF): 25% | ability of NMN to stimulate tube formation, dependence on SIRT1 ([1]; NT or SIRT1 siRNA, VEGF 30 ng/mL, NMN 0.5 mM): SIRT1-dependent | effects of NMN on VEGF-mediated tube formation after knockdown of SIRT1 ([1]; Scr or SIRT1 siRNA, NMN 500 μM): completely blocked by knockdown of SIRT1 | VEGF-mediated tube formation after knockdown of SIRT3 and SIRT6 ([1]; T3 or T6 siRNA, VEGF 30 ng/mL, +/- NMN): partially rescued | disintegration of tubes ([1]; time-lapse videos, extended 18 h period): prevented the disintegration of tubes | ability of NMN to stimulate cell migration, dependence on SIRT1 [2]: SIRT1-dependent | ability of NMN to stimulate spheroid sprouting, dependence on SIRT1 (HAECs; NT or SIRT1 siRNA, VEGF 50 ng/mL, NMN 0.5 mM): SIRT1-dependent | rescue of SU5416-blocked sprouting (HAECs; SU5416 10 μM plus NMN 0.5 mM): not rescued | VEGF-mediated spheroid sprouting after knockdown of SIRT3 and SIRT6 (HAECs; T3 or T6 siRNA, VEGF, NMN 0.5 mM): partially rescued | resting muscle perfusion (peak enhancement) (C57BL/6J mice [3]): increased resting muscle perfusion | oxygen consumption higher than non-treated control mice (C57BL/6J mice [4]; dark cycle): 23% | oxygen consumption higher than non-treated control mice (C57BL/6J mice [4]; light cycle): 30% | capillary density of ischemic gastrocnemius (SIRT1-iKO and WT mice): restored | relative blood volume (peak enhancement) of ischemic limb (SIRT1-iKO and WT mice): restored | cell migration (percentage of closed gaps) (HUVECs): had no effect
